According to patent US5231103A, “Quinolin-2-yl-methoxybenzylhydroxyureas” (Bayer Aktiengesellschaft, priority 1991, dated 1993):

Biological target: T1, 5-LO (Homo sapiens, UniProt P09917)
T1 construct: release of leukotriene B4 (LTB4) in polymorphonuclear human leucocytes (PMN); endogenous in cells; host or cells: human polymorphonuclear leucocytes (PMN)
T1 sequence (P09917 1-674): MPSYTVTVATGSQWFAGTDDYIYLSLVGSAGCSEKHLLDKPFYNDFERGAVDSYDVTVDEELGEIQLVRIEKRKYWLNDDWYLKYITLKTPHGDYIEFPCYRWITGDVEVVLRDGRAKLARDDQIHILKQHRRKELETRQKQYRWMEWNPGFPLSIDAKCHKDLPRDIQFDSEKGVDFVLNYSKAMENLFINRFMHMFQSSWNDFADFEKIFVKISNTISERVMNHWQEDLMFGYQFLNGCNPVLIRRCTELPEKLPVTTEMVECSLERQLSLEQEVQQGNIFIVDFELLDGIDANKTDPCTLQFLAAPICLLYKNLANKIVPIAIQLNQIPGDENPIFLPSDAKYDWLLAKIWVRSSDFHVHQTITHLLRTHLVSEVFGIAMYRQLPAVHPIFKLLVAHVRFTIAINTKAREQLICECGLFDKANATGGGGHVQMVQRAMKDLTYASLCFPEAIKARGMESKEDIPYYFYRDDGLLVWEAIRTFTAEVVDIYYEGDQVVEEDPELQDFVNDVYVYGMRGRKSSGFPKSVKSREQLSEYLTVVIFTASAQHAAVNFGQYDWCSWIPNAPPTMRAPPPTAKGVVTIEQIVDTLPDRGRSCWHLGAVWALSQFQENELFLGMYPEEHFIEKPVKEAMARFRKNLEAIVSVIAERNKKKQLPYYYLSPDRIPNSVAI
Experiment: lipoxygenase inhibition: release of leukotriene B4 (LTB4) in polymorphonuclear human leucocytes (PMN) after Ca ionophore, by reverse phase HPLC
Assay type: cell-based
Settings: LTB4 release in human PMN after addition of substance and Ca ionophore; RP-HPLC
Protocol: As a measure of lipoxygenase inhibition, the release of leukotriene B4 (LTB4) in polymorphonuclear human leucocytes (PMN) after addition of substances and Ca ionophore was determined by means of reverse phase HPLC according to Borgeat, P. et al., Proc. Nat. Acad. Sci., 76, 2148-2152 (1979).

IC50 | Compound
250 nM | NC(=O)N(O)C(c1ccc(OCc2ccc3ccccc3n2)cc1)C1CCCCC1 (centres unmarked) [Example 1, N-[4-(Quinolin-2-yl-methoxy)phenyl-cyclohexyl]methyl-N-hydroxyurea]
1200 nM | NC(=O)N(O)C(c1ccc(OCc2ccc3ccccc3n2)cc1)C1CCCC1 (centres unmarked) [Example 2, N-[4-(Quinolin-2-yl-methoxy)phenyl-cyclopentyl]methyl-N-hydroxyurea]
